Columns and labels:
[1] = LogP HPLC
[2] = Biodistribution of 18F-labelled tracers in rats; type: in vivo
In short: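 Sprague-Dawley rats received 18F tracer, and brain and peripheral tissues were analysed at 15 and 30 min and 1 and 4 h post-injection. For specificity, rats were pretreated 5 min beforehand with PK11195 or Ro 5-4864 (PBR) or flumazenil (CBR), each at 1 mg/kg.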

[3] = molecular target: central benzodiazepine receptors; test: In vitro binding, [3H]-Flumazenil, brain cortex membrane preparation; settings: [3H]-Flumazenil (2 nM), 25° C., 45 min, read-out: CBR IC50
In short: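 Brain cortex membranes bound with [3H]-flumazenil; non-specific binding defined by 20 μM flumazenil. Filtration on GF/B, washes in ice-cold 50 mM Tris/HCl pH 7.4, bound counts by scintillation, IC50 derived from displacement.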

[4] = SD rats, 15 min, decay correction not stated
[5] = SD rats, 4 hours, decay correction not stated
[6] = rats, 15 min, corrected for decay of 18F
[7] = rats, 15 min, not corrected for decay of 18F
[8] = rats, 30 min, corrected for decay of 18F
[9] = rats, 30 min, not corrected for decay of 18F
[10] = rats, 60 min (1 hour), not corrected for decay of 18F
[11] = rats, 60 min, corrected for decay of 18F
[12] = rats, 4 hours, corrected for decay of 18F
[13] = rats, 4 hours, not corrected for decay of 18F

CCN(CC)C(=O)Cc1c(-c2ccc(OCCF)cc2)nc2ccc(Cl)cn12 [PBR102, 2-(2-(4-(2-fluoroethoxy)phenyl)-6-chloroimidazo[1,2-a]pyridin-3-yl)-N,N-diethylacetamide]
chromatographic logP [1]: 2.7 ± 0.09
Biodistribution: Bone [2, 4]: 0.4 % ID/g
Biodistribution: Kidney [2, 4]: 4.5 % ID/g
Biodistribution: Olfactory bulbs [2, 4]: 0.56 % ID/g
Biodistribution: Adrenals ([2]; SD rats, 30 min, decay correction not stated): 9 % ID/g
Biodistribution: Adrenals [2, 5]: 11 % ID/g
Biodistribution: Bone [2, 5]: 1.0 % ID/g
Biodistribution: Kidney [2, 5]: 1.3 % ID/g
Biodistribution: Olfactory bulbs [2, 5]: 0.40 % ID/g
Blood activity level / concentration in the blood over the 4 h study period ([2]; SD rats, throughout 15 min to 4 h): 0.20%
Biodistribution: Bone [2, 6]: 0.46 ± 0.04 % ID/g
Biodistribution: Heart [2, 6]: 4.35 ± 0.33 % ID/g
Biodistribution: Lungs [2, 6]: 14.30 ± 1.45 % ID/g
Biodistribution: Skin [2, 6]: 0.24 ± 0.03 % ID/g
Biodistribution: Adrenals [2, 7]: 8.30 ± 2.13 % ID/g
Biodistribution: Bladder [2, 7]: 0.59 ± 0.14 % ID/g
Biodistribution: Blood [2, 7]: 0.25 ± 0.06 % ID/g
Biodistribution: Bone [2, 7]: 0.56 ± 0.07 % ID/g
Biodistribution: Brain [2, 7]: 0.24 ± 0.03 % ID/g
Biodistribution: GIT [2, 7]: 0.82 ± 0.11 % ID/g
Biodistribution: Heart [2, 7]: 5.23 ± 0.33 % ID/g
Biodistribution: Kidney [2, 7]: 3.90 ± 0.53 % ID/g
Biodistribution: Liver [2, 7]: 0.75 ± 0.21 % ID/g
Biodistribution: Lungs [2, 7]: 17.25 ± 1.70 % ID/g
Biodistribution: Muscle [2, 7]: 0.49 ± 0.03 % ID/g
Biodistribution: Olfactory bulbs [2, 7]: 0.68 ± 0.12 % ID/g
Biodistribution: Pancreas [2, 7]: 1.74 ± 0.22 % ID/g
Biodistribution: Skin [2, 7]: 0.29 ± 0.05 % ID/g
Biodistribution: Spleen [2, 7]: 5.35 ± 0.89 % ID/g
Biodistribution: Stomach [2, 7]: 0.80 ± 0.19 % ID/g
Biodistribution: Testes [2, 7]: 0.22 ± 0.02 % ID/g
Biodistribution: Thymus [2, 7]: 0.68 ± 0.17 % ID/g
Biodistribution: Thyroid [2, 7]: 7.74 ± 1.90 % ID/g
Biodistribution: Bone [2, 8]: 0.52 ± 0.05 % ID/g
Biodistribution: Heart [2, 8]: 4.44 ± 0.26 % ID/g
Biodistribution: Lungs [2, 8]: 12.10 ± 1.98 % ID/g
Biodistribution: Skin [2, 8]: 0.31 ± 0.03 % ID/g
Biodistribution: Adrenals [2, 9]: 9.75 ± 1.53 % ID/g
Biodistribution: Bladder [2, 9]: 0.67 ± 0.16 % ID/g
Biodistribution: Blood [2, 9]: 0.21 ± 0.03 % ID/g
Biodistribution: Bone [2, 9]: 0.64 ± 0.12 % ID/g
Biodistribution: Brain [2, 9]: 0.20 ± 0.04 % ID/g
Biodistribution: GIT [2, 9]: 1.07 ± 0.26 % ID/g
Biodistribution: Heart [2, 9]: 5.41 ± 0.71 % ID/g
Biodistribution: Kidney [2, 9]: 3.95 ± 1.01 % ID/g
Biodistribution: Liver [2, 9]: 0.63 ± 0.21 % ID/g
Biodistribution: Lungs [2, 9]: 14.80 ± 3.67 % ID/g
Biodistribution: Muscle [2, 9]: 0.46 ± 0.08 % ID/g
Biodistribution: Olfactory bulbs [2, 9]: 0.44 ± 0.05 % ID/g
Biodistribution: Pancreas [2, 9]: 1.42 ± 0.45 % ID/g
Biodistribution: Skin [2, 9]: 0.37 ± 0.05 % ID/g
Biodistribution: Spleen [2, 9]: 4.68 ± 0.90 % ID/g
Biodistribution: Stomach [2, 9]: 0.71 ± 0.21 % ID/g
Biodistribution: Testes [2, 9]: 0.29 ± 0.05 % ID/g
Biodistribution: Thymus [2, 9]: 0.81 ± 0.06 % ID/g
Biodistribution: Thyroid [2, 9]: 10.70 ± 2.08 % ID/g
Biodistribution: Adrenals [2, 10]: 7.88 ± 1.86 % ID/g
Biodistribution: Bladder [2, 10]: 0.60 ± 0.11 % ID/g
Biodistribution: Blood [2, 10]: 0.20 ± 0.03 % ID/g
Biodistribution: Bone [2, 10]: 0.73 ± 0.13 % ID/g
Biodistribution: Brain [2, 10]: 0.20 ± 0.03 % ID/g
Biodistribution: GIT [2, 10]: 1.09 ± 0.13 % ID/g
Biodistribution: Heart [2, 10]: 5.32 ± 0.74 % ID/g
Biodistribution: Kidney [2, 10]: 3.10 ± 0.51 % ID/g
Biodistribution: Liver [2, 10]: 0.40 ± 0.04 % ID/g
Biodistribution: Lungs [2, 10]: 13.44 ± 2.71 % ID/g
Biodistribution: Muscle [2, 10]: 0.39 ± 0.07 % ID/g
Biodistribution: Olfactory bulbs [2, 10]: 0.52 ± 0.05 % ID/g
Biodistribution: Pancreas [2, 10]: 0.88 ± 0.18 % ID/g
Biodistribution: Skin [2, 10]: 0.43 ± 0.07 % ID/g
Biodistribution: Spleen [2, 10]: 3.89 ± 0.54 % ID/g
Biodistribution: Stomach [2, 10]: 0.52 ± 0.13 % ID/g
Biodistribution: Testes [2, 10]: 0.37 ± 0.06 % ID/g
Biodistribution: Thymus [2, 10]: 0.91 ± 0.16 % ID/g
Biodistribution: Thyroid [2, 10]: 11.55 ± 4.24 % ID/g
Biodistribution: Bone [2, 11]: 0.64 ± 0.07 % ID/g
Biodistribution: Heart [2, 11]: 4.62 ± 0.27 % ID/g
Biodistribution: Lungs [2, 11]: 11.63 ± 1.52 % ID/g
Biodistribution: Skin [2, 11]: 0.37 ± 0.03 % ID/g
Biodistribution: Bone [2, 12]: 1.01 ± 0.09 % ID/g
Biodistribution: Heart [2, 12]: 2.82 ± 0.15 % ID/g
Biodistribution: Lungs [2, 12]: 8.09 ± 1.14 % ID/g
Biodistribution: Skin [2, 12]: 0.49 ± 0.03 % ID/g
Biodistribution: Adrenals [2, 13]: 9.77 ± 2.42 % ID/g
Biodistribution: Bladder [2, 13]: 1.08 ± 0.14 % ID/g
Biodistribution: Blood [2, 13]: 0.26 ± 0.03 % ID/g
Biodistribution: Bone [2, 13]: 1.22 ± 0.22 % ID/g
Biodistribution: Brain [2, 13]: 0.23 ± 0.03 % ID/g
Biodistribution: GIT [2, 13]: 1.43 ± 0.34 % ID/g
Biodistribution: Heart [2, 13]: 3.38 ± 0.44 % ID/g
Biodistribution: Kidney [2, 13]: 1.61 ± 0.29 % ID/g
Biodistribution: Liver [2, 13]: 0.34 ± 0.05 % ID/g
Biodistribution: Lungs [2, 13]: 10.26 ± 1.09 % ID/g
Biodistribution: Muscle [2, 13]: 0.27 ± 0.03 % ID/g
Biodistribution: Olfactory bulbs [2, 13]: 0.50 ± 0.13 % ID/g
Biodistribution: Pancreas [2, 13]: 0.49 ± 0.12 % ID/g
Biodistribution: Skin [2, 13]: 0.59 ± 0.06 % ID/g
Biodistribution: Spleen [2, 13]: 2.29 ± 0.50 % ID/g
Biodistribution: Stomach [2, 13]: 0.49 ± 0.13 % ID/g
Biodistribution: Testes [2, 13]: 0.52 ± 0.06 % ID/g
Biodistribution: Thymus [2, 13]: 1.21 ± 0.27 % ID/g
Biodistribution: Thyroid [2, 13]: 8.29 ± 3.22 % ID/g
IC50 [3]: 1.56 µM

— patent publication US20100209345A1, “Fluorinated Ligands for Targeting Peripheral Benzodiazepine Receptors” (Australian Nuclear Science & Technology Organisation, priority 2006, published 2010)
